Measured values published in patent US20020123525A1, “Cardioprotective composition and uses thereof” (GESTILAB INC., priority 1999, published 2002).

Key:
isolated rat heart [1] = experiment: Cardioprotection and reperfusion-induced arrhythmias in regional ischemia-reperfusion of isolated rat heart; conditions: Heart (ex vivo)
Protocol: (§1) All experiments were conformed to rules of the Guide for the care and use of laboratory animals published by the U.S. National Institutes of Health (NIH publication No 85-23, revised 1985). Adult male Wistar rats (225-250 g) were anaesthetized with sodium pentobarbitone (0.1 ml/100 g body weight) and then heparinised (500 Ul intra-peritoneally). Hearts were rapidly excised, placed in ice-cold oxygenated KH buffer solution, cleaned and then mounted on a modified Langendorff heart perfusion apparatus.
Hearts were cannulated via the aorta and retrogradely perfused at a constant perfusion pressure (90 mm Hg at 37° C.) with modified KH buffer. […]
A saline-filled latex balloon was inserted into the left ventricle by way of the AV valve and connected via a polyethylene cannula to a pressure transducer for determination of Left Ventricular Pressure (LVP) and Left Ventricular End Diastolic Pressure (LVEDP). […] The LVP, LVEDP, and ECG were recorded on a Nihon-Kohden polygraph (RM 600); heart rate (HR) was calculated from the electrogram. Coronary flow (CF) was measured by time collection of coronary effluent at various times during the experiment.
Hearts were perfused for a 20 min control period with KH buffer, for stabilization. […] Left ventricular pressure and epicardial ECG were continuously monitored before and during ischemia and reperfusion. […]

[2] = In vitro antioxidant capacity, inhibition of DPD oxidation by electrolyzed KH buffer
From the text: Oxidation rate of N,N-diethyl-p-phenylenediamine (DPD) by a prooxidant system was used as a general reporter of the amount of ROS generated by that system (Anonymous, 1985; Chahine et al., 1991). Antioxidant capacity of preparations of TRIAD (or of its components) was defined as the extent (%) to which they inhibited the oxidation of DPD by prooxidants. To estimate the antioxidant capacity of TRIAD preparations in the conditions encountered during perfusion of hearts with electrolyzed buffer, 0.6 ml of modified KH not containing (control situation corresponding to 0% inhibition) or containing various concentrations of TRIAD, TRIAD (S2) or their components was subjected to 1-min electrolysis at 10 mA and then mixed with 0.3 ml of the non-electrolyzed counterpart of the solution to which 95 mM DPD was added. Determination of the amount of oxidized DPD was immediately done by reading absorbencies a 515 nm.

isolated rat heart [3] = experiment: Cardioprotection in electrolysis-induced ROS on isolated rat heart; conditions: Heart (ex vivo)
Protocol: as §1
Hearts were cannulated via the aorta and retrogradely perfused at a constant perfusion pressure (90 mm Hg at 37° C.) with modified KH buffer. This solution was continuously gassed with a mixture of 95% O2 and 5% CO2 to maintain a pH of 7.4 at 37° C. […]
A saline-filled latex balloon was inserted into the left ventricle by way of the AV valve and connected via a polyethylene cannula to a pressure transducer for determination of Left Ventricular Pressure (LVP) and Left Ventricular End Diastolic Pressure (LVEDP). […] The LVP, LVEDP, and ECG were recorded on a Nihon-Kohden polygraph (RM 600); heart rate (HR) was calculated from the electrogram. Coronary flow (CF) was measured by time collection of coronary effluent at various times during the experiment. […]
The cardiodynamic variables were monitored during all the experimental period.

CC(=O)C(=O)[O-].[Na+] [Pyruvate, sodium pyruvate]
Effect of fatty acids and vitamin E on action of pyruvate, the component that mostly contributed to antioxidant action (isolated rat heart [1]): (Pyruvate, ↓)
Effect of fatty acids and vitamin E on action of pyruvate, the component that mostly contributed to antioxidant action ([2]; DPD (in vitro), electrolysis): (Pyruvate, ↑)
Antioxidant capacity (ROS scavenging) in vitro, comparison ([2]; electrolysis pro-oxidant system, DPD method, same concentrations): only a slightly lower ROS scavenging capacity
Effect of fatty acids and vitamin E on action of pyruvate, the component that mostly contributed to antioxidant action (isolated rat heart [3]): (Pyruvate, ↑)
